{"source": "patent US20040072146A1", "about": "“Mechanism of mitochondrial membrane permeabilization by HIV-1 Vpr, mimetics of Vpr and methods of screening active molecules having the ability to alter and/or prevent and/or mimic the interaction of Vpr with ANT” (priority 2000, published 2004)", "key": {"[1]": {"system": "purified mitochondria", "assay": "FITC-Vpr52-96 binding to purified mitochondria", "conditions": "0.5 μM FITC-Vpr52-96", "protocol": "Mitochondria were left unstained (insert in Co.) or exposed to the ΔΨm-insensitive mitochondrial dye MitoTracker® Green (75 nM), alone (MTG) or with 0.5 μM of FITC-Vpr52-96; green fluorescence), in combination with the ΔΨm-sensitive mitochondrial dye MitoTracker® Red (CMXRos; red Fluorescence) followed by cytofluorometric two-color analysis. Numbers indicate the percentage of mitochondria in each quadrant.\nMitochondria were incubated with the indicated inhibitors, and then exposed for 30 min at RT with 5 μM biotinylated Vpr52-96. Mitochondria were lysed either after incubation with biotinylated Vpr52-96 (upper panel) or lysed before (lower panel) with Tris/HCl as described in materials and methods. Biotinylated Vpr52-96 complexed with its mitochondrial ligands was retained on avidin-agarose and subjected to immunoblot detection of ANT."}, "[2]": {"biological_target": "T1, ANT (Rattus norvegicus, UniProt Q05962)", "T1 construct": "from tissue", "conditions": "surface plasmon resonance, Jacotot et al. 2000; cited from earlier work"}, "[3]": {"system": "purified mitochondria", "assay": "Respirometry of purified mitochondria, respiratory control", "assay_type": "biochemical", "conditions": "1 μM peptide, 10 min", "protocol": "A. Oxygen consumption curves after addition of the indicated agents. Trace a: control mitochondria (no pretreatment). Trace b: mitochondria pretreated for 10 min with 1 μM Vpr52-96. Numbers along the traces are nmol of O2 consumed min^−1 mg^31 1 protein.\nB. Respiratory control (RC) values calculated by dividing oxygen consumption in the presence of CCCP by that measured with oligomycin (determined as in A), 10 min after addition of 1 μM of Vpr-derived peptides (mean values of 3 determinations)."}, "[4]": {"system": "purified mitochondria", "assay": "Inner versus outer mitochondrial membrane permeabilization (NADH oxidation, cytochrome c oxidation)", "assay_type": "biochemical", "protocol": "A. Respirometry performed after addition of NADH and Vpr52-96 (1 μM). Numbers along the traces are nmol of O2 consumed min^−1 mg^−1 protein.\nB. Kinetics of Vpr52-96 induced inner membrane permeabilization to NADH and outer membrane permeabilization to reduced cytochrome c. Oxygen consumption was determined in the presence of 2 mM NADH (full squares) as in A (traces C-D) and cytochrome c (15 μM) oxidation (open circles) was spectrofluorometrically measured, as described Rustin et al., 1994). The 100% value of cytochrome c oxidation was determined by addition of 2.5 mM laurylmaltoside.\nOxygen consumption of purified mitochondria was measured as in FIG. 5 after addition of succinate+CCCP or NADH, as indicated."}, "[5]": {"biological_target": "T1, ANT", "assay_type": "binding", "conditions": "purified detergent-solubilized ANT", "source_text": "A Plasma surface resonance sensorgrams of the interaction of ANT with Vpr52-96, Vpr52-96[R73A, 80A] or an irrelevant control (Co).\nB. Langmuir isotherm determined at different concentrations of ANT on sensorgrams corrected by substraction of the blank (sensorgrams obtained with Vpr52-96[R73A, 80A])."}, "[6]": {"biological_target": "T1, ANT", "assay": "Single channel recordings in planar lipid bilayers", "assay_type": "biochemical", "protocol": "FIG. 3 presents electrophysiological properties of Vpr52-96 and ANT in planar lipid bilayers. Current fluctuations of Vpr52-96 (80 nM, +150 mV), Vpr52-96(0.4 nM, +100 mV), ANT (1 nM, +110 mV) and Vpr52-96+ANT (0.4:1 nM, +115 mV) and associated histograms (right) of conductance levels are shown.\nCurrent fluctuations of Vpr52-96 (80 nM, +150 mV), Vpr52-96 (0.4 nM, +100 mV), ANT (1 nM, +110 mV) and Vpr52-96+ANT (0.4:1 nM, 115 mV) after incorporation into synthetic membranes. Single channel recordings were performed using the “Tip-Dip” technique. The recordings shown are representative for at least three independent determinations.\nB. Statistical analysis of conductances obtained in A. Results were expressed as current distributions at different voltages. Conductances (γ; in picosiemens, pS) are calculated by division of current by voltage."}, "[7]": {"system": "isolated mitochondria", "assay": "Electron microscopy of isolated mitochondria (matrix swelling)", "assay_type": "biochemical", "conditions": "3 μM Vpr52-96, 5 or 15 min", "source_text": "C. Ultrastructural effects of Vpr on isolated mitochondria."}, "[8]": {"biological_target": "T2, ANT-proteoliposomes (Rattus norvegicus, UniProt Q05962)", "T2 construct": "ANT is purified from rat heart and reconstituted in liposomes; from tissue; host or cells: rat heart (ANT)", "T2 sequence (Q05962 1-298)": "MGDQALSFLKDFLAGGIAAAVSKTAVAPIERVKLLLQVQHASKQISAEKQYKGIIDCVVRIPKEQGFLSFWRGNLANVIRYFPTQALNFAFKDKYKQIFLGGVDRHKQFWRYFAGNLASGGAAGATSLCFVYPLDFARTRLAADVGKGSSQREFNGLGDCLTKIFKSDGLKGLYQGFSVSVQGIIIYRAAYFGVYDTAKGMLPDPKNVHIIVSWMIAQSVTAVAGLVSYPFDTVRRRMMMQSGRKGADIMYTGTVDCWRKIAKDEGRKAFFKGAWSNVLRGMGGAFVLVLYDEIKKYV", "assay": "FITC-labeled Vpr52-96 binding onto ANT-liposomes and plain liposomes", "protocol": "A. Dose-response curve of FITC-labeled Vpr52-96 binding onto ANT-liposomes and plain liposomes.\nB. Binding of FITC-Vpr52-96 (2 μM) to plain liposomes, ANT-proteoliposomes, in the presence or absence of BA (50 μM)."}}, "data": [{"compound": "CC[C@H](C)[C@H](NC(=O)[C@H](C)NC(=O)[C@H](CCC(=O)O)NC(=O)[C@@H](NC(=O)CNC(=O)[C@H](C)NC(=O)[C@H](Cc1c[nH]c2ccccc12)NC(=O)[C@@H](NC(=O)[C@@H](N)CC(=O)O)[C@@H](C)O)C(C)C)C(=O)N[C@H](C(=O)N[C@@H](CCCNC(=N)N)C(=O)N[C@H](C(=O)N[C@@H](CC(C)C)C(=O)N[C@@H](CCC(N)=O)C(=O)N[C@@H](CCC(N)=O)C(=O)N[C@@H](CC(C)C)C(=O)N[C@@H](CC(C)C)C(=O)N[C@@H](Cc1ccccc1)C(=O)N[C@H](C(=O)N[C@@H](Cc1c[nH]cn1)C(=O)N[C@@H](Cc1ccccc1)C(=O)N[C@@H](CCCNC(=N)N)C(=O)N[C@H](C(=O)NCC(=O)N[C@@H](CS)C(=O)N[C@@H](CCCNC(=N)N)C(=O)N[C@@H](Cc1c[nH]cn1)C(=O)N[C@@H](CO)C(=O)N[C@@H](CCCNC(=N)N)C(=O)N[C@H](C(=O)NCC(=O)N[C@H](C(=O)N[C@H](C(=O)N[C@@H](CCCNC(=N)N)C(=O)N[C@@H](CCC(N)=O)C(=O)N[C@@H](CCCNC(=N)N)C(=O)N[C@@H](CCCNC(=N)N)C(=O)N[C@@H](C)C(=O)N[C@@H](CCCNC(=N)N)C(=O)N[C@@H](CC(N)=O)C(=O)NCC(=O)N[C@@H](C)C(=O)N[C@@H](CO)C(=O)N[C@@H](CCCNC(=N)N)C(=O)N[C@@H](CO)C(=O)O)[C@@H](C)O)C(C)C)[C@@H](C)CC)[C@@H](C)CC)[C@@H](C)CC)[C@@H](C)CC)[C@@H](C)CC", "note": "[Vpr52-96]", "values": [{"measurement": "Vpr52-96 binding to mitochondria relative to ΔΨm loss", "setting": "[1]", "result": "binds mitochondria before inducing ΔΨm loss"}, {"measurement": "affinity of Vpr C-terminus for purified ANT", "setting": "[2]", "result": "high affinity in the nanomolar range"}, {"measurement": "effect on respiratory control (RC)", "setting": "[3]", "result": "exhibited a gross deficiency in respiratory control (RC)"}, {"measurement": "respiratory control (RC) value", "setting": "[3]; 5.3 in control mitochondria", "result": 1.1}, {"measurement": "order of inner and outer MMP", "setting": "[4]", "result": "causes inner MMP well before OM becomes permeable to exogenous cytochrome c"}, {"measurement": "time to maximal NADH oxidation", "setting": "[4]; Vpr52-96 1 μM, 2 mM NADH", "result": 10, "unit": "min"}, {"measurement": "binding of ANT to immobilized peptide (sensorgram)", "setting": "[5]", "result": "exhibits an increase of binding as a function of time and a positive signal at the start of the dissociation phase"}, {"measurement": "conductance of channels formed by ANT and Vpr52-96", "setting": "[6]; Vpr52-96+ANT 0.4:1 nM", "result": "190±2", "unit": "pS"}, {"measurement": "mean conductance of Vpr52-96-ANT channels without any further addition", "setting": "[6]; as restated in Example 4", "result": "190±2"}, {"measurement": "conductance of channels formed by Vpr52-96 alone", "setting": "[6]; high doses (80 nM), no ANT", "result": "55±2", "unit": "pS"}, {"measurement": "channel formation in planar lipid bilayers", "setting": "[6]; low doses (<1 nM)", "result": "incapable of forming channels, unless ANT was present"}, {"measurement": "ultrastructural effect on mitochondria", "setting": "[7]", "result": "exhibited matrix swelling before OM rupture became apparent"}, {"measurement": "Vpr52-96 binding to membranes, ANT liposomes versus protein-free liposomes", "setting": "[8]", "result": "greatly facilitated in liposomes in which ANT has been reconstituted as compared to protein-free liposomes"}]}]}
